Consider 17 compounds from patent publication US11046691B1 (IDEAYA BIOSCIENCES, INC., priority 2018, dated 2021).

Bounds are passed on as bounds.

The first assay deals with hMAT2A (Homo sapiens (Human), UniProt P31153). Nature of the assay: Phosphate Sensor Fluorescence Assay (MAT2A enzyme inhibition). To be noted: L-methionine 500 uM, ATP 500 uM, class symbols. In kind it is biochemical. The procedure: The ability of the compound of present disclosure to inhibit MAT2A enzyme was determined using the Malachite Green or Phosphate Sensor Fluorescence Assay described below.
Chain of hMAT2A (P31153 whole entry): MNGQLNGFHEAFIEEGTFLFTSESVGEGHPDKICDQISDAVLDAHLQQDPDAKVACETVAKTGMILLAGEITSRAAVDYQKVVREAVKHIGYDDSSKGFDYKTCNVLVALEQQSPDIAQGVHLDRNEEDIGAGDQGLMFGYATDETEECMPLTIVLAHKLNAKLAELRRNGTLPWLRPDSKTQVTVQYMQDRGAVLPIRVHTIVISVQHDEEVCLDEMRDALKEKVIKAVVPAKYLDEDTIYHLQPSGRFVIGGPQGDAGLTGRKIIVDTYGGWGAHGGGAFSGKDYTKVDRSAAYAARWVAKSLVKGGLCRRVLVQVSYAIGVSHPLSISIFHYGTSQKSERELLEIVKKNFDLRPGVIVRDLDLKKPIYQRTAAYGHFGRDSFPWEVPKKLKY
B. Phosphate Sensor Fluorescence Assay
MAT2A enzyme is incubated with a test compound in DMSO or DMSO and its substrates (L-methionine and ATP) in a microtiter plate. The enzymatic reaction is stopped by the addition of Working Phosphate Sensor Mixture. The plate is analyzed for fluorescence at 450 nm.
Assay Buffer: 50 mM Tris, pH 7.5/50 mM KCl/10 mM MgCl2/0.01% Brij-35/1 mM DTT/0.1% BGG/40 nM PNP/6 uM 7-MEG
L-methionine: 500 uM before the addition of Working Phosphate Sensor Mixture
ATP: 500 uM before the addition of Working Phosphate Sensor Mixture
Test compounds or DMSO were added to the appropriate well suing D300e digital dispenser. 5 μl/well of Assay Buffer was added to the wells corresponding to the negative control and 5 μl/well of MAT2A was added to all the wells except for those corresponding to the negative control. After incubating the plate at room temperature for 15 minutes, 5 μl/well of the 1 mM L-methionine/1 mM ATP mixture was added to all wells. The plate was centrifuged at 1000 rpm for 1 minute and then incubated at room temperature for 1 hour. 5 μl of the Working Phosphate Sensor Mixture was added to all wells and the plate was centrifuged at 1000 rpm for 1 minute. The plate was read for fluorescence at 450 nm after exciting at 430 nm.
Percent inhibition was calculated in Chemical and Biological Information System (CBIS), (ChemInnovation Software Inc.). Curves were fitted by CBIS as % inhibition vs. log [compound concentration] using a 4-parameter inhibition model. Fit=(A+((B−A)/(1+((C/x)^D)))) Res=(y−fit)
As to `CC(F)(F)c1ccc2c(NCC3CC3)nc(=O)n(-c3ccccc3Cl)c2c1` [Example 425, 1-(2-chlorophenyl)-4-((cyclopropyl-methyl)amino)-7-(1,1-difluoroethyl)-quinazolin-2(1H)-one], the IC50 (as a rule, the point on the concentration scale where inhibition reaches its midpoint) is below 200 nM. The same measure, in the same setting: then `O=c1nc(N2CC[C@@H](O)C2)c2ccc(Cl)cc2n1-c1ccc2nccn2c1` [Example 250, 4-((3R)-3-hydroxypyrrolidin-1-yl)-7-chloro-1-(4-hydroimidazo[1,2-a]pyridin-6-yl)-hydroquinazolin-2-one], with 500 to 1000 nM; and `N#Cc1cccc(-n2c(=O)nc(N3CC[C@H](O)C3)c3ccc(C(F)(F)F)nc32)c1` [Example 182, (S)-3-(4-(3-hydroxypyrrolidin-1-yl)-2-oxo-7-(trifluoromethyl)pyrido[2,3-d]pyrimidin-1(2H)-yl)benzonitrile], with below 200 nM.

`Nc1nc(=O)n(-c2cccnc2)c2cc(C(F)(F)F)ccc12` [Example 327, 4-amino-1-(pyridin-3-yl)-7-(trifluoro-methyl)hydroquinazolin-2-one] yielded an IC50 below 200 nM.

“4-(3,3-difluoropyrrolidin-1-yl)-7- chloro-1-phenylhydroquinazolin-2-one [Example 207]” returned an IC50 below 200 nM. Same read-out and setting: the same measure for `O=c1nc(NCC2(CO)CC2)c2ccc(C(F)(F)F)nc2n1-c1ccccc1Cl` [Example 265]: below 200 nM; for `O=c1[nH]c(=O)n(-c2cccnc2)c2nc(C(F)(F)F)ccc12` [Example 359, 1-(pyridin-3-yl)-7-(trifluoromethyl)-pyrido[2,3-d]pyrimidine-2,4(1H,3H)-dione]: below 200 nM; for `O=c1nc(N2CC[C@H](O)C2)c2ccc(C(F)(F)F)nc2n1-c1ccccc1Cl` [Example 181, (S)-1-(2-chlorophenyl)-4-(3-hydroxy-pyrrolidin-1-yl)-7-(trifluoromethyl)-pyrido[2,3-d]pyrimidin-2(1H)-one]: below 200 nM. The same measure, in the same setting: then `CNc1nc(=O)n(-c2ccccc2Cl)c2cc(Cl)ccc12` [Example 218, 7-chloro-1-(2-chlorophenyl)-4-(methylamino)quinazolin-2(1H)-one], with below 200 nM; and `CN(C)c1nc(=O)n(-c2ccccc2Cl)c2nc(C(F)(F)F)ccc12` [Example 244, 1-(2-chlorophenyl)-4-(dimethylamino)-7-(trifluoromethyl)pyrido[2,3-d]-pyrimidin-2(1H)-one], with below 200 nM; and `COCCNc1nc(=O)n(-c2ccccc2Cl)c2nc(C(F)(F)F)ccc12` [Example 317, 1-(2-chlorophenyl)-4-[(2-methoxyethyl)-amino]-7-(trifluoromethyl)pyrido[2,3-d]-pyrimidin-2(1H)-one], with below 200 nM. Same read-out and setting: the same measure for `CNc1nc(=O)n(-c2ccccc2)c2cc(Cl)c(C#N)cc12` [Example 190, 7-chloro-4-(methylamino)-2-oxo-1-phenylhydroquinazoline-6-carbonitrile]: 1000 to 10000 nM. The compound `CNC(=O)CN(C)c1nc(=O)n(-c2ccccc2)c2cc(Cl)ccc12` [Example 221, 2-((7-chloro-2-oxo-1-phenyl-1,2-dihydroquinazolin-4-yl)(methyl)amino)-,N-methylacetamide] came in with an IC50 of 1000 to 10000 nM. Same read-out and setting: then `CNc1nc(=O)n(-c2ncccc2C)c2cc(Cl)ccc12` [Example 371], with below 200 nM. On the same count and under the same terms, the same measure for `COC1CCN(c2nc(=O)n(-c3ccccc3)c3cc(Cl)ccc23)C1` (centres unmarked) [Example 230, 7-chloro-4-(3-methoxypyrrolidin-1-yl)-1-phenylquinazolin-2(1H)-one]: below 200 nM.

Staying with this assay, now noted: L-methionine 500 uM, ATP 500 uM, numeric bound.
Compound `O=c1[nH]c(=O)n(-c2nccc(O)n2)c2cc(Cl)ccc12` [Example 210, 7-chloro-1-(4-hydroxypyrimidin-2-yl)-1,3-dihydroquinazoline-2,4-dione] displayed an IC50 above 10000 nM. On the same count and under the same terms, then `CNc1nc(=O)n(-c2ccccc2)c2c(Cl)c(C(F)(F)F)ccc12` [Example 343, 8-chloro-4-(methylamino)-1-phenyl-7-(trifluoromethyl)hydroquinazolin-2-one], with above 10000 nM.
